In patent publication US12410152B2, “Oxazole and thioazole-type cullin ring ubiquitin ligase compounds and uses thereof” (Proxygen GmbH, priority 2019, dated 2025):

System: KBM7 WT cells (global proteome)
Assay: Quantitative expression proteomics (TMT isobaric tagging), drug vs DMSO
Format: cell-based, human
Source text: The mechanism by which the assayed molecules re-program a functional CRL4B complex based on the data shown could be that drug binding to CUL4B recruits a neo-substrate directly to the cullin backbone. Alternatively, drug binding could stabilize CUL4B function to boost time intervals where a functionally competent CUL4B complexes can be formed. Here, the word “functional” implies that the CUL4B backbone of this complex needs to be neddylated, and a CUL4B associated E2 ubiquitin-conjugating enzyme (UBE2G1) needs to be bound. FIG. 9 outlines one possible mechanism. Both predicted mechanisms of action would result in a functionally altered CRL4B complex, and thus an altered stability of drug-induced (neo-) substrates. In order to identify target proteins with a decreased abundance or, in other words, target proteins that become degraded by CRL4B after drug treatment, global proteome composition was measured using quantitative expression proteomics (TMT-labeling). In brief, KBM7 cells were drug treated for 12 hours, lysed, and subjected to isobaric tagging. Ensuing proteomics analysis quantified a total of 7,903 proteins at a minimum spectral count of 2. […] Data on essentiality are taken from Hart et al., G3, August 2017 (PMID: 28655737).
50×10^6 KBM7^WT cells per condition were collected, washed four times with ice-cold PBS, the supernatant aspirated and pellets snap-frozen in liquid N2. Each washed cell pellet was lysed separately in 40 μL of freshly prepared lysis buffer as previously described (see Mayor-Ruiz et al., Mol Cell 2019)
Offline Fractionation via RP-HPLC at high pH and 2D-RP/RP Liquid Chromatography Mass Spectrometry were performed as previously described (see Mayor-Ruiz et al., Mol Cell 2019).
Acquired raw data files were processed using the Proteome Discoverer 2.2.0 platform, utilizing the Sequest HT database search engine and Percolator validation software node (V3.04) to remove false positives with a false discovery rate (FDR) of 1% on peptide and protein level under strict conditions. Searches were performed with full tryptic digestion against the human SwissProt database v2017.06 with up to two allowed miscleavage sites. Oxidation (+15.9949 Da) of methionine was set as variable modification, whilst carbamidomethylation (+57.0214 Da) of cysteine residues and TMT 6-plex labelling of peptide N-termini and lysine residues were set as fixed modifications. Data was searched with mass tolerances of ±10 ppm and ±0.02 Da on the precursor and fragment ions, respectively. Results were filtered to include peptide spectrum matches (PSMs) with Sequest HT cross-correlation factor (Xcorr) scores of […] and high peptide confidence assigned by Percolator. MS^2 signal-to-noise values (S/N) values of TMT reporter ions were used to estimate peptide/protein abundance changes. PSMs with precursor isolation interference values of ≥ 50% and average TMT-reporter ion S/N≤10 were excluded from quantitation. Only unique peptides were used for TMT quantitation as well as for TOP3 label-free quantitation. Isotopic impurity correction and TMT channel-normalization based on total peptide amount were applied. For statistical analysis and p-value calculation, the integrated ANOVA hypothesis test was used. TMT ratios with p-values below 0.01 were considered as significant. Only proteins with >1 peptide detected and >1 unique peptide detected were considered for further analysis. For the calling of destabilized proteins, a log 2 fold change threshold (drug/DMSO) of −0.3 was applied.
Comparison of overall proteome-wide changes in KBM7 cells treated with IC020772.1 (2.5 μM), IC021313.2 (7 μM) or T6938051 (3.5 μM) for 5 h and 12h, using quantitative proteomics based on isobaric tagging.
The protein names in Table 4, Table 5 and Table 6 refer to the protein names as provided by HUGO Gene Nomenclature Committee (HGNC) database. […]

O=C(CSc1nnc2c(n1)[nH]c1ccccc12)Nc1ccc(Cl)cn1 [IC020772.1]
log2FC (IC020772.1/DMSO) (ACD (Q96AP0-1)): −0.567
log2FC (IC020772.1/DMSO) (AEN (Q8WTP8-2)): −0.5522
log2FC (IC020772.1/DMSO) (ANTXR2 (P58335-4)): −0.5522
log2FC (IC020772.1/DMSO) (APEX2 (Q9UBZ4)): −1.224
log2FC (IC020772.1/DMSO) (APOB (P04114)): −0.5002
log2FC (IC020772.1/DMSO) (APOL2 (Q9BQE5)): −0.5585
log2FC (IC020772.1/DMSO) (ARSK (Q6UWY0)): −0.486
log2FC (IC020772.1/DMSO) (ASPM (Q8IZT6-1)): −0.5416
log2FC (IC020772.1/DMSO) (BICD1 (Q96G01-1)): −0.5479
log2FC (IC020772.1/DMSO) (BTBD10 (Q9BSF8-2)): −0.6371
log2FC (IC020772.1/DMSO) (C8orf59 (Q8N0T1-1)): −1.442
log2FC (IC020772.1/DMSO) (C12orf45 (Q8N5I9)): −0.5479
log2FC (IC020772.1/DMSO) (CCDC32 (Q9BV29-2)): −1.221
log2FC (IC020772.1/DMSO) (CCDC61 (Q9Y6R9-1)): −0.567
log2FC (IC020772.1/DMSO) (CCNB1 (P14635-1)): −0.5416
log2FC (IC020772.1/DMSO) (CCND3 (P30281-1)): −0.5479
log2FC (IC020772.1/DMSO) (CDC6 (Q99741)): −1.201
log2FC (IC020772.1/DMSO) (CDC7 (O00311-1)): −0.5585
log2FC (IC020772.1/DMSO) (CDCA7 (Q9BWT1-1)): −1.311
log2FC (IC020772.1/DMSO) (CEP70 (Q8NHQ1-1)): −0.4941
log2FC (IC020772.1/DMSO) (CHEK1 (O14757-1)): −0.5522
log2FC (IC020772.1/DMSO) (CLIP1 (P30622-2)): −0.4982
log2FC (IC020772.1/DMSO) (CLK2 (P49760-1)): −0.5395
log2FC (IC020772.1/DMSO) (CNTLN (Q9NXG0-2)): −0.5585
log2FC (IC020772.1/DMSO) (CSPP1 (Q1MSJ5-3)): −0.4961
log2FC (IC020772.1/DMSO) (CTNNAL1 (Q9UBT7-1)): −0.5564
log2FC (IC020772.1/DMSO) (Cllorf98 (E9PRG8)): −0.6304
log2FC (IC020772.1/DMSO) (DDX28 (Q9NUL7)): −0.5437
log2FC (IC020772.1/DMSO) (DHFR (P00374-1)): −0.4961
log2FC (IC020772.1/DMSO) (DNAJB12 (Q9NXW2-1)): −0.5458
log2FC (IC020772.1/DMSO) (DNAJB14 (Q8TBM8-1)): −0.5374
log2FC (IC020772.1/DMSO) (DPH3 (Q96FX2-1)): −0.5564
log2FC (IC020772.1/DMSO) (DSG2 (Q14126)): −0.5692
log2FC (IC020772.1/DMSO) (E2F4 (Q16254)): −0.486
log2FC (IC020772.1/DMSO) (ERICH5 (Q6P6B1-1)): −0.6371
log2FC (IC020772.1/DMSO) (EVI2B (P34910-2)): −0.6282
log2FC (IC020772.1/DMSO) (FAM177A1 (Q8N128-2)): −0.486
log2FC (IC020772.1/DMSO) (FNDC3B (Q53EP0-1)): −0.6371
log2FC (IC020772.1/DMSO) (FYTTD1 (Q96QD9-1)): −1.279
log2FC (IC020772.1/DMSO) (GAB1 (Q13480-2)): −0.5564
log2FC (IC020772.1/DMSO) (GOSR1 (O95249-1)): −0.4961
log2FC (IC020772.1/DMSO) (GPT2 (Q8TD30-1)): −0.5564
log2FC (IC020772.1/DMSO) (GTSE1 (Q9NYZ3)): −0.4941
log2FC (IC020772.1/DMSO) (HAUS1 (Q96CS2-1)): −0.5043
log2FC (IC020772.1/DMSO) (HLTF (Q14527-1)): −0.5543
log2FC (IC020772.1/DMSO) (IL27RA (Q6UWB1)): −0.5458
log2FC (IC020772.1/DMSO) (JADE2 (Q9NQC1-1)): −0.5395
log2FC (IC020772.1/DMSO) (JMJD6 (Q6NYC1-3)): −0.5522
log2FC (IC020772.1/DMSO) (JUP (P14923)): −0.484
number of proteins significantly downregulated (log2FC < -0.3), destabilized proteins (KBM7 cells, 12 hours, ~10xEC50, 7,903 proteins quantified): 869
number of downregulated proteins known to be implicated in KBM7 proliferation (essential for KBM7 viability) (KBM7 cells, 12 hours, essentiality from Hart et al. 2017): 147
